Laboratory results published in patent publication US20140303164A1, “THERAPEUTIC COMPOUNDS” (Gilead Sciences, Inc., priority 2013, published 2014).

Columns and labels:
[1] = Test B: Cytotoxicity Assay; assay type: cell-based; conditions: human, uninfected MT-4 cells, same protocol as Test A
Summary of the method: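 Uninfected MT-4 cells (2000 per well) incubated with diluted compound at 37° C. for 5 days, following the antiviral protocol without HIV-IIIb.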

HIV-IIIb = assay: Test A: Antiviral Assay in MT4 Cells; assay type: cell-based, HIV-1; conditions: Human immunodeficiency virus 1, IIIB, MT4, 120 h; for inhibition at 0.2 µM: read-out: % inhibition at 0.2 μM; for inhibition at 2 µM: read-out: % inhibition at 2 μM
Protocol: Test A: Antiviral Assay in MT4 Cells
MT-4 cells were next mixed with HIV-IIIb at an m.o.i of 0.003 for 1 hour, after which time 35 μL of virus/cell mixture (2000 cells) was immediately added to each well containing 40 μL of diluted compound. The plates were then incubated at 37° C. for 5 days. […] Cell lysis was carried out by incubating at room temperature for 10 min and then chemiluminescence was read.

| Compound | CC50 at 5 days [1] | inhibition at 0.2 µM (HIV-IIIb) | inhibition at 2 µM (HIV-IIIb) |
| --- | --- | --- | --- |
| CC(C)C(=O)Nc1nn(C)c2c(-c3ccc(C#CC(C)(C)O)nc3[C@H](Cc3cc(F)cc(F)c3)NC(=O)Cn3nc(C(F)F)c4c3C(F)(F)[C@@H]3C[C@H]43)ccc(Cl)c12 [Compound 96, N-(4-chloro-7-(2-((S)-1-(2-((3b-S,4aR)-3-(difluoromethyl)-5,5-difluoro-3b,4,4a,5-tetrahydro-1H-cyclopropa[3,4]cyclopenta[1,2-c]pyrazol-1-yl)acetamido)-2-(3,5-difluorophenyl)ethyl)-6-(3-hydroxy-3-methylbut-1-yn-1-yl)pyridin-3-yl)-1-methyl-1H-indazol-3-yl)isobutyramide] | 7 µM | 100% | 100% |
| Cn1nc(NC(=O)C(F)F)c2c(Cl)ccc(-c3ccc(C#CC(C)(C)O)nc3[C@H](Cc3cc(F)cc(F)c3)NC(=O)Cn3nc(C(F)F)c4c3C(F)(F)[C@@H]3C[C@H]43)c21 [Compound 97, N-(4-chloro-7-(2-((S)-1-(2-((3b-S,4aR)-3-(difluoromethyl)-5,5-difluoro-3b,4,4a,5-tetrahydro-1H-cyclopropa[3,4]cyclopenta[1,2-c]pyrazol-1-yl)acetamido)-2-(3,5-difluorophenyl)ethyl)-6-(3-hydroxy-3-methylbut-1-yn-1-yl)pyridin-3-yl)-1-methyl-1H-indazol-3-yl)-2,2-difluoroacetamide] | 7.6 µM | 100% | 100% |
| Cn1nc(NC(=O)C(F)(F)F)c2c(Cl)ccc(-c3ccc(C#CC(C)(C)O)nc3[C@H](Cc3cc(F)cc(F)c3)NC(=O)Cn3nc(C(F)F)c4c3C(F)(F)[C@@H]3C[C@H]43)c21 [Compound 98, N-(4-chloro-7-(2-((S)-1-(2-((3bS,4aR)-3-(difluoromethyl)-5,5-difluoro-3b,4,4a,5-tetrahydro-1H-cyclopropa[3,4]cyclopenta[1,2-c]pyrazol-1-yl)acetamido)-2-(3,5-difluorophenyl)ethyl)-6-(3-hydroxy-3-methylbut-1-yn-1-yl)pyridin-3-yl)-1-methyl-1H-indazol-3-yl)-2,2,2-trifluoroacetamide] | 8.41 µM | 100% | 100% |
| CN(C)CC(=O)Nc1nn(C)c2c(-c3ccc(C#CC(C)(C)O)nc3[C@H](Cc3cc(F)cc(F)c3)NC(=O)Cn3nc(C(F)F)c4c3C(F)(F)[C@@H]3C[C@H]43)ccc(Cl)c12 [Compound 99B, N—((S)-1-(3-(4-chloro-3-(2-(dimethylamino)acetamido)-1-methyl-1H-indazol-7-yl)-6-(3-hydroxy-3-methylbut-1-yn-1-yl)pyridin-2-yl)-2-(3,5-difluorophenyl)ethyl)-2-((3b-S,4aR)-3-(difluoromethyl)-5,5-difluoro-3b,4,4a,5-tetrahydro-1H-cyclopropa[3,4]cyclopenta[1,2-c]pyrazol-1-yl)acetamide] | 6.37 µM | 100% | 100% |
| Cn1nc(NC(=O)CN2CCCC2)c2c(Cl)ccc(-c3ccc(C#CC(C)(C)O)nc3[C@H](Cc3cc(F)cc(F)c3)NC(=O)Cn3nc(C(F)F)c4c3C(F)(F)[C@@H]3C[C@H]43)c21 [Compound 100, N—((S)-1-(3-(4-chloro-1-methyl-3-(2-(pyrrolidin-1-yl)acetamido)-1H-indazol-7-yl)-6-(3-hydroxy-3-methylbut-1-yn-1-yl)pyridin-2-yl)-2-(3,5-difluorophenyl)ethyl)-2-((3b-S,4aR)-3-(difluoromethyl)-5,5-difluoro-3b,4,4a,5-tetrahydro-1H-cyclopropa[3,4]cyclopenta[1,2-c]pyrazol-1-yl)acetamide] | 5.14 µM | 99% | 99% |
| CNCC(=O)Nc1nn(C)c2c(-c3ccc(C#CC(C)(C)O)nc3[C@H](Cc3cc(F)cc(F)c3)NC(=O)Cn3nc(C(F)F)c4c3C(F)(F)[C@@H]3C[C@H]43)ccc(Cl)c12 [Compound 101, N—((S)-1-(3-(4-chloro-1-methyl-3-(2-(methylamino)acetamido)-1H-indazol-7-yl)-6-(3-hydroxy-3-methylbut-1-yn-1-yl)pyridin-2-yl)-2-(3,5-difluorophenyl)ethyl)-2-((3bS,4aR)-3-(difluoromethyl)-5,5-difluoro-3b,4,4a,5-tetrahydro-1H-cyclopropa[3,4]cyclopenta[1,2-c]pyrazol-1-yl)acetamide] | 6.53 µM | 95% | 95% |
| Cn1nc(NC(=O)CNC2CC2)c2c(Cl)ccc(-c3ccc(C#CC(C)(C)O)nc3[C@H](Cc3cc(F)cc(F)c3)NC(=O)Cn3nc(C(F)F)c4c3C(F)(F)[C@@H]3C[C@H]43)c21 [Compound 102, N—((S)-1-(3-(4-chloro-3-(2-(cyclopropylamino)acetamido)-1-methyl-1H-indazol-7-yl)-6-(3-hydroxy-3-methylbut-1-yn-1-yl)pyridin-2-yl)-2-(3,5-difluorophenyl)ethyl)-2-((3b-S,4aR)-3-(difluoromethyl)-5,5-difluoro-3b,4,4a,5-tetrahydro-1H-cyclopropa[3,4]cyclopenta[1,2-c]pyrazol-1-yl)acetamide] | 5.82 µM | 100% | 100% |
| C[C@H](O)C(=O)Nc1nn(C)c2c(-c3ccc(C#CC(C)(C)O)nc3[C@H](Cc3cc(F)cc(F)c3)NC(=O)Cn3nc(C(F)F)c4c3C(F)(F)[C@@H]3C[C@H]43)ccc(Cl)c12 [Compound 103, (S)—N-(4-chloro-7-(2-((S)-1-(2-((3bS,4aR)-3-(difluoromethyl)-5,5-difluoro-3b,4,4a,5-tetrahydro-1H-cyclopropa[3,4]cyclopenta[1,2-c]pyrazol-1-yl)acetamido)-2-(3,5-difluorophenyl)ethyl)-6-(3-hydroxy-3-methylbut-1-yn-1-yl)pyridin-3-yl)-1-methyl-1H-indazol-3-yl)-2-hydroxypropanamide] | 6.79 µM | 100% | 100% |
| Cn1nc(NS(C)(=O)=O)c2cccc(-c3ccc(C#CC(C)(C)N)nc3[C@H](Cc3cc(F)cc(F)c3)NC(=O)Cn3nc(C(F)(F)F)c4c3C(F)(F)[C@@H]3C[C@H]43)c21 [Compound 104, N—((S)-1-(6-(3-amino-3-methylbut-1-yn-1-yl)-3-(1-methyl-3-(methylsulfonamido)-1H-indazol-7-yl)pyridin-2-yl)-2-(3,5-difluorophenyl)ethyl)-2-((3bS,4aR)-5,5-difluoro-3-(trifluoromethyl)-3b,4,4a,5-tetrahydro-1H-cyclopropa[3,4]cyclopenta[1,2-c]pyrazol-1-yl)acetamide] | 7.46 µM | 100% | 100% |
| CC(C)(O)C#Cc1ccc(-c2ccc3nnc(N)n3c2)c([C@H](Cc2cc(F)cc(F)c2)NC(=O)Cn2nc(C(F)F)c3c2C(F)(F)[C@@H]2C[C@H]32)n1 [Compound 105E, N—((S)-1-(3-(3-amino-[1,2,4]triazolo[4,3-a]pyridin-6-yl)-6-(3-hydroxy-3-methylbut-1-yn-1-yl)pyridin-2-yl)-2-(3,5-difluorophenyl)ethyl)-2-((3b-S,4aR)-3-(difluoromethyl)-5,5-difluoro-3b,4,4a,5-tetrahydro-1H-cyclopropa[3,4]cyclopenta[1,2-c]pyrazol-1-yl)acetamide] | 31.5 µM | – | 74% |
| CC(C)(O)C#Cc1ccc(-c2ccc(Cl)n3c(N)nnc23)c([C@H](Cc2cc(F)cc(F)c2)NC(=O)Cn2nc(C(F)F)c3c2C(F)(F)[C@@H]2C[C@H]32)n1 [Compound 106E, N—((S)-1-(3-(3-amino-5-chloro-[1,2,4]triazolo[4,3-a]pyridin-8-yl)-6-(3-hydroxy-3-methylbut-1-yn-1-yl)pyridin-2-yl)-2-(3,5-difluorophenyl)ethyl)-2-((3b-S,4aR)-3-(difluoromethyl)-5,5-difluoro-3b,4,4a,5-tetrahydro-1H-cyclopropa[3,4]cyclopenta[1,2-c]pyrazol-1-yl)acetamide] | 12.4 µM | 95% | 96% |
| Cn1nc(O)c2cccc(-c3ccc(C#CC(C)(C)O)nc3[C@H](Cc3cc(F)cc(F)c3)NC(=O)Cn3nc(C(F)F)c4c3C(F)(F)[C@@H]3C[C@H]43)c21 [Compound 107B, 2-((3bS,4aR)-3-(difluoromethyl)-5,5-difluoro-3b,4,4a,5-tetrahydro-1H-cyclopropa[3,4]cyclopenta[1,2-c]pyrazol-1-yl)-N—((S)-2-(3,5-difluorophenyl)-1-(6-(3-hydroxy-3-methylbut-1-yn-1-yl)-3-(1-methyl-3-oxo-2,3-dihydro-1H-indazol-7-yl)pyridin-2-yl)ethyl)acetamide] | 5.3 µM | 95% | 95% |
| CC(C)(O)C#Cc1ccc(-c2ccc(Cl)c3c(NS(C)(=O)=O)n[nH]c23)c([C@H](Cc2cc(F)cc(F)c2)NC(=O)Cn2nc(C(F)F)c3c2C(F)(F)[C@@H]2C[C@H]32)n1 [Compound 108C, N—((S)-1-(3-(4-chloro-3-(methylsulfonamido)-1H-indazol-7-yl)-6-(3-hydroxy-3-methylbut-1-yn-1-yl)pyridin-2-yl)-2-(3,5-difluorophenyl)ethyl)-2-((3b-S,4aR)-3-(difluoromethyl)-5,5-difluoro-3b,4,4a,5-tetrahydro-1H-cyclopropa[3,4]cyclopenta[1,2-c]pyrazol-1-yl)acetamide] | > 53.1 µM | 94% | 94% |
